Measured values taken from PMC12677652, “Procyanidin B3 and Its Derivatives Alleviate Neuronal Injury by Targeting G3BP1 for Ischemic Stroke Therapy” (Advanced Science, 2025).

Assays:
OGD/R‐treated HT22 cells = assay: Neuroprotective effect on OGD/R-treated HT22 cells, cell viability by CCK-8; assay type: cell-based; details: for viability at 2 µM / viability at 20 µM: Mus musculus, HT-22, 6 h OGD, 24 h reoxygenation with compound, relative to control cells, mean ± S.D., n = 3
Procedure: HT22 cells were washed with phosphate buffered saline (PBS), then DMEM sugar‐free medium (Gibco, USA) was added and placed in the anaerobic incubator of 5% CO2, 1% O2, and 37 °C for 6 h. PB3 or other compounds were previously dissolved in DMEM/F‐12 with 10% FBS and 1% penicillin/streptomycin. After undergoing OGD for 6 h, the medium was replaced by DMEM/F‐12 with 10% FBS and 1% penicillin/streptomycin containing PB3 or other compounds and kept in a humidified 5% CO2, 37 °C incubator for 24 h.
The CCK‐8 assay kit (Yeasen, China) was used to assess cell viability. All operations were performed following instructions. HT22 cells were seeded into the 96‐well plate (3000 cells per well). The cells were cultured at 37 °C with 5% CO2 in a humidified incubator overnight. After 6 h of OGD, the medium was replaced by DMEM/F‐12 with 10% FBS and 1% penicillin/streptomycin containing PB3 or other compounds and kept in a humidified 5% CO2, 37 °C incubator for 24 h. Then, the cells were washed with PBS, the medium was replaced with DMEM/F‐12 with 10% FBS and 1% penicillin/streptomycin containing 10% CCK‐8 solution, and incubated for 1 h at 37 °C. The absorbance was assessed by a Synergy H1 multi‐mode microplate reader (BioTek, USA) at 450 nm.

G3BP1 = target: T1, G3BP1 (Mus musculus, UniProt P97855); assay: Pull-down analysis with PB3-BP probe in HT22 lysates; assay type: binding; details: 200 µM PB3‐BP, blocked by free PB3
T1 construct: endogenous in cells; host or cells: HT22 cell lysate
Procedure: HT22 cells were grown to 90% confluency and harvested by trypsin and resuspended in 1 mL PBS (containing protease inhibitors and 0.1% Triton X‐100). The samples were subjected to three freeze–thaw cycles in liquid nitrogen. Each cell lysate was centrifuged (12000 g for 30 min at 4 °C), and the supernatant was collected. The protein concentrations were determined by a BCA protein assay kit (Thermo Scientific, USA). The lysates were adjusted to 2 mg mL^−1 and treated with 200 µM PB3 or DMSO, labeled with 200 µM of PB3‐BP or DMSO, and then put on ice under UV radiation at 365 nm for 1 h. The labeled proteins were precipitated with chloroform‐methanol. Then the precipitations were resuspended with 1.2% SDS/PBS and combined with 300 µM biotin‐PEG3‐azide, 100 µM tris(benzyltriazolylmethyl)amine, 1 mM tris(2‐carboxyethyl)phosphine hydrochloride, and 1 mM CuSO4 for 1 h. After this reaction, the proteomes were extracted again with chloroform‐methanol. The proteins were solubilized with 1.2% SDS/PBS and diluted 5x with PBS. The solubilized proteins were incubated with streptavidin beads (100 µL of slurry, Thermo Scientific, USA) at room temperature for 3 h with rotation. […] The eluted proteins were analyzed by SDS‐polyacrylamide gel electrophoresis and immunoblotted with anti‐G3BP1 antibody.

[1] = assay type: physicochemical
Procedure: Furthermore, a small‐molecule procyanidin B3‐benzophenone probe (PB3‐BP, 2, Figure 2G) was synthesized based on a non‐protective condensation strategy (Scheme S1, Supporting Information).^[ [29] ^] The stability of compound 2 is poor, and its structure is determined by 2D‐NMR after acetylation (Figure S4, Supporting Information). […] To identify the specific targeting sites of PB3 on G3BP1, the ultraviolet‐crosslinked complex of PB3‐BP/G3BP1 was digested with trypsin and subjected to LC‐MS/MS analysis.^[ [30] ^] […] To evaluate the affinity between the wild type and four mutants (L105A, R107A, Q134A, D135A) ^[ [34] ^] of the G3BP1 NTF2L domain and PB3, molecular dynamics simulations were performed to analyze each complex system based on docking results.^[ [35] ^]

T1 sequence (P97855 whole entry): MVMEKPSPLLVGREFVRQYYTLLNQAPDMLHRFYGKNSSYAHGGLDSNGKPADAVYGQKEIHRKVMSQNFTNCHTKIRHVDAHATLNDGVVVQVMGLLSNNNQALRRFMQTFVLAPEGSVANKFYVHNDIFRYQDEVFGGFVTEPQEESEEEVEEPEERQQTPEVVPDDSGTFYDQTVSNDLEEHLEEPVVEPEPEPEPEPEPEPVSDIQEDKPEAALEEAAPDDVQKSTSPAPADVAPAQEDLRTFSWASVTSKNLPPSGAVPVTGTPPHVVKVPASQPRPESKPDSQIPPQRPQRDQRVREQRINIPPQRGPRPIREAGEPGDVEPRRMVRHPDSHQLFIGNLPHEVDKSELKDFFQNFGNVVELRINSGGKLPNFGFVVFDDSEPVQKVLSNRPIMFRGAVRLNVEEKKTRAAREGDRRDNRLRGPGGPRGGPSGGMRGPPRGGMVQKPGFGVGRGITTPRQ

Row | SMILES | viability at 2 µM (OGD/R‐treated HT22 cells) | viability at 20 µM (OGD/R‐treated HT22 cells) | pull-down of G3BP1 (G3BP1) | stability [1] | neuroprotective activity (OGD/R‐treated HT22 cells; 100 µM, OGD/R‐treated HT22 cells)
1 | Oc1ccc([C@H]2Oc3c(-c4cccnc4)c(O)cc(O)c3[C@@H](c3c(O)cc(O)c4c3O[C@H](c3ccc(O)c(O)c3)[C@@H](O)C4)[C@@H]2O)cc1O [Compound 6h, 8‐(Pyridin‐3‐yl)‐(+)‐Catechin‐(4α,8)‐(+)‐Catechin] | 58.8 ± 7.12% | 75.3 ± 4.68% |  |  | 
2 | COc1cc([C@H]2Oc3c(c(O)cc(O)c3[C@@H]3c4c(O)cc(O)cc4O[C@H](c4ccc(O)c(O)c4)[C@H]3O)C[C@@H]2O)ccc1O [Compound 13c, (+)‐Catechin‐(4α,8)‐[3′‐O‐Methyl‐(+)‐Catechin]] | 66.2 ± 10.6% | 66.1 ± 2.9% |  |  | 
3 | CC1=NN(c2ccccc2)C(=O)C1 [EDA, edaravone, reference compound] | 60.8 ± 7.4% | 71.5 ± 9.84% |  |  | 
4 | COc1ccc([C@H]2Oc3cc(O)cc(O)c3[C@@H](c3c(O)cc(O)c4c3O[C@H](c3ccc(O)c(O)c3)[C@@H](O)C4)[C@@H]2O)cc1O [Compound 13b, 4′‐O‐Methyl‐(+)‐Catechin‐(4α,8)‐(+)‐Catechin] | 57.5 ± 7.11% | 70.54 ± 0.41% |  |  | 
5 | C#CCN(Cc1ccc(C(=O)c2ccccc2)cc1)C(=O)COc1cc(O)c([C@@H]2c3c(O)cc(O)cc3O[C@H](c3ccc(O)c(O)c3)[C@H]2O)c2c1C[C@H](O)[C@@H](c1ccc(O)c(O)c1)O2 [Compound 2, N‐(4‐Benzoylbenzyl)‐2‐(((2R,2′R,3S,3′S,4S)‐2,2′‐bis(3,4‐dihydroxyphenyl)‐3,3′,5,7,7′‐pentahydroxy‐[4,8′‐bichroman]‐5′‐yl)oxy)‐N‐(prop‐2‐yn‐1‐yl)acetamide] |  |  | pulled down | poor | retained the neuroprotective activity of PB3
6 | CCCc1c(O)cc(O)c2c1O[C@H](c1ccc(O)c(O)c1)[C@@H](O)[C@@H]2c1c(O)cc(O)c2c1O[C@H](c1ccc(O)c(O)c1)[C@@H](O)C2 [Compound 6d, 8‐Propyl‐(+)‐Catechin‐(4α,8)‐(+)‐Catechin] | 62.1 ± 3.73% | 78.8 ± 1.43% |  |  | 
7 | Oc1ccc([C@H]2Oc3c(-c4ccncc4)c(O)cc(O)c3[C@@H](c3c(O)cc(O)c4c3O[C@H](c3ccc(O)c(O)c3)[C@@H](O)C4)[C@@H]2O)cc1O [Compound 6g, 8‐(Pyridin‐4‐yl)‐(+)‐Catechin‐(4α,8)‐(+)‐Catechin] | 55.9 ± 8.56% | 71.4 ± 1.74% |  |  | 
8 | Oc1ccc([C@H]2Oc3c(-c4ccccc4)c(O)cc(O)c3[C@@H](c3c(O)cc(O)c4c3O[C@H](c3ccc(O)c(O)c3)[C@@H](O)C4)[C@@H]2O)cc1O [Compound 6f, 8‐Phenyl‐(+)‐Catechin‐(4α,8)‐(+)‐Catechin] | 59.7 ± 7.43% | 70.4 ± 7.72% |  |  | 
9 | COc1ccc([C@H]2Oc3c(c(O)cc(O)c3[C@@H]3c4c(O)cc(O)cc4O[C@H](c4ccc(O)c(O)c4)[C@H]3O)C[C@@H]2O)cc1O [Compound 13d, (+)‐Catechin‐(4α,8)‐[4′‐O‐Methyl‐(+)‐Catechin]] | 63 ± 6.27% | 69 ± 8.76% |  |  | 
10 | CCc1c(O)cc(O)c2c1O[C@H](c1ccc(O)c(O)c1)[C@@H](O)[C@@H]2c1c(O)cc(O)c2c1O[C@H](c1ccc(O)c(O)c1)[C@@H](O)C2 [Compound 6b, 8‐Ethyl‐(+)‐Catechin‐(4α,8)‐(+)‐Catechin] | 62 ± 9.21% | 73.6 ± 4.78% |  |  | 
11 | COc1cc(OC)c2c(c1)O[C@H](c1ccc(OC)c(OC)c1)[C@@H](O)[C@@H]2c1c(OC)cc(OC)c2c1O[C@H](c1ccc(OC)c(OC)c1)[C@@H](O)C2 [Compound 9, 5,7,3′,4′‐Tetra‐O‐Methyl‐(+)‐Catechin‐(4α, 8)‐[5,7,3′,4′‐Tetra‐O‐Methyl‐(+)‐Catechin]] | 52.6 ± 7.34% | 66.8 ± 1.89% |  |  | 
12 | CC(=O)O[C@H]1[C@H](c2c(O)cc(O)c3c2O[C@H](c2ccc(O)c(O)c2)[C@@H](OC(C)=O)C3)c2c(O)cc(O)cc2O[C@@H]1c1ccc(O)c(O)c1 [Compound 8, 3‐O‐Acetyl‐(+)‐Catechin‐(4α,8)‐[3‐O‐Acetyl‐(+)‐Catechin]] | 62 ± 5.58% | 69.3 ± 6.73% |  |  | 
13 | COc1cc([C@H]2Oc3cc(O)cc(O)c3[C@@H](c3c(O)cc(O)c4c3O[C@H](c3ccc(O)c(O)c3)[C@@H](O)C4)[C@@H]2O)ccc1O [Compound 13a, 3′‐O‐Methyl‐(+)‐Catechin‐(4α,8)‐(+)‐Catechin] | 59.6 ± 2.82% | 65.5 ± 4.74% |  |  | 
14 | CC(C)Cc1c(O)cc(O)c2c1O[C@H](c1ccc(O)c(O)c1)[C@@H](O)[C@@H]2c1c(O)cc(O)c2c1O[C@H](c1ccc(O)c(O)c1)[C@@H](O)C2 [Compound 6e, 8‐Isobutyl‐(+)‐Catechin‐(4α,8)‐(+)‐Catechin] | 58.5 ± 8.12% | 67 ± 2.7% |  |  | 
15 | Cc1c(O)cc(O)c2c1O[C@H](c1ccc(O)c(O)c1)[C@@H](O)[C@@H]2c1c(O)cc(O)c2c1O[C@H](c1ccc(O)c(O)c1)[C@@H](O)C2 [Compound 6a, 8‐Methyl‐(+)‐Catechin‐(4α,8)‐(+)‐Catechin] | 56.7 ± 2.22% | 70.2 ± 2.92% |  |  | 
